The values below come from patent publication US8426386B2, “NK1 receptor antagonist composition” (Lion Corporation, priority 2006, dated 2013).

SMILES strings stand for the structures.

In this test the test system is NK1 receptor. Briefly: NK1 Receptor Antagonism Assay (calcium imaging, substance P stimulation). Format: cell-based, human. Particulars: for Efficacy (NK1 receptor antagonistic activity grade): substance P 100 μM; for effect as the NK1 receptor antagonist (in words): summary of Table 1. The source says:
[Performance Evaluation Test] NK1 Receptor Antagonism Assay
In this test, maltose, maltotriose, maltotetraose, maltopentaose, maltohexaose and maltoheptaose were purchased from SIGMA, isomaltose, isomaltotriose, isomaltotetraose, isomaltopentaose, isomaltohexaose and isomaltoheptaose were purchased from Seikagaku Corporation, and four types of oligosaccharides-1-kestose, fructofranosylnystose, nystose and galactotetraose—were purchased from Wako Pure Chemicals Industries Ltd. Each oligosaccharide was diluted with saline, and used.
In order to transiently express a cloned human NK1 receptor in HEK293, cDNA of the human NK1 receptor was cut out from pCDM8 (Invitrogen), and cloned in an expression vector pCDM9 derived by inserting an ampicillin resistant gene (BLUESCRIPT, nucleotides 1973 to 2964 from SK+) at a SacII site.
HEK293 cells were seeded at 1×10^5 cells in a Falcon dish (diameter: 3.5 cm) using α-MEM medium (Gibco) containing 10% bovine fetal serum, and cultured in a 5% CO2 incubator at 37° C. overnight. Then, 20 μg of the expression vector was transfected using Transfection Reagent FuGENE6 (Roche) according to attached instructions, and the transfectants were incubated at 37° C. for 3 days and assayed by a calcium imaging method.
According to Renganathan et al's method (Renganathan M et al., J. Neurophysiol., 84(2), […] (2000)), nerve cells were dispersed and isolated from spinal dorsal root ganglion in a wild type mouse, and 1×10^5 thereof were seeded in a 24-well plate coated with poly-L-lysine. The cells were cultured in 90% DMEM medium (GIBCO) supplemented with 10% bovine fetal serum, 2 mM glutamine, 100 U/mL of penicillin/streptomycin, 100 ng/mL of NGF (SIGMA) and 5 μM cytosine arabinoside (SIGMA) under 5% CO2 at 37° C. The cells were cultured for 1 to 3 weeks, and subsequently subjected to a calcium imaging analysis. A half of the nerve cells was identified to be positive for the NK1 receptor by staining the nerve cells derived from spinal dorsal root ganglion in the wild type mouse with an anti-NK1 receptor antibody (supplied from CHEMICON International).
The cells which express the NK1 receptor transiently or constitutively were subjected to measurement using a high resolution digital B/W cooling CCD camera (ORCA supplied from Hamamatsu Photonics K.K.), and their images were analyzed using an analysis software (AQUA COSMOS supplied from Hamamatsu Photonics K.K.). When the cells were labeled for calcium, Fluo4-AM (supplied from Molecular Probe) was used as a calcium sensitive dye. Fifty μg of Fluo4-AM was dissolved in 400 μL of DMSO in a vial, 4 μL of Pluronic F-127 (Molecular Probe) was added and mixed, and then 4 mL of OPTI-MEM (GIBCO) was added thereto. The calcium sensitive dye solution thus prepared was added to the cells, which were then incubated at 37° C. for 60 minutes. An agonist, an antagonist and samples to be evaluated were prepared at concentrations which were 10 times higher than assay concentrations, and analyzed by adding a one tenth volume of the cell suspension upon analysis. All reagents and an assay temperature were kept at 37° C. For the cells transfected transiently, YFP reporter DNA fluorescence (excitation: 490 nm) was used for identifying the transfected cells. Upon measurement, a fluorescence intensity obtained by initially imaging the untreated cells was made an initial value. After passing one minute, a change of calcium/fluorescence intensity in the sample to be evaluated at the desired concentration was monitored with an interval of one second before and after the addition (2 to 5 minutes). Subsequently, substance P was added, and immediately after (2 to 5 minutes), an antagonistic activity of the sample to be evaluated was determined by monitoring the change of intracellular calcium concentrations as the change of the fluorescence intensities with the interval of one second. […]

The mark [1] stands for this setting: evaluated concentration 1000 ppm.

As to `OC[C@H]1O[C@H](O[C@H]2[C@H](O)[C@@H](O)C(O)O[C@@H]2CO)[C@H](O)[C@@H](O)[C@@H]1O` (mixture of isomers) [Maltose, maltose], the “effect as the NK1 receptor antagonist (in words)” value (shortened to “effect”) was “high effect”. In addition, the “Efficacy (NK1 receptor antagonistic activity grade)” value (from here on “Efficacy”) (evaluated concentration 0.1 ppm) is “D (Ineffective: the antagonistic activity was less than 65%, or the stimulating or agonistic activity of the sample was strong.)”. In addition, the “Efficacy” value (evaluated concentration 1 ppm) was “D (Ineffective: the antagonistic activity was less than 65%, or the stimulating or agonistic activity of the sample was strong.)”. Moreover, the “Efficacy” value (evaluated concentration 10 ppm) was “C (Slightly effective: the antagonistic activity was less than 65%, and a stimulating or agonistic activity of the sample was weak.)”. Besides, the “Efficacy” value (evaluated concentration 100 ppm) was “C (Slightly effective: the antagonistic activity was less than 65%, and a stimulating or agonistic activity of the sample was weak.)”. Further, the “Efficacy” value under setting [1] was “B (Effective: the antagonistic activity was 65% or more and less than 75% and the more excellent performance than in the positive control was shown.)”.

For `OC[C@H]1O[C@@](CO)(OC[C@@]2(O[C@H]3O[C@H](CO)[C@@H](O)[C@H](O)[C@H]3O)O[C@H](CO)[C@@H](O)[C@@H]2O)[C@@H](O)[C@@H]1O` [Example 1-Kestose, 1-kestose, reference compound], the “effect” value is on record as “no NK1 receptor antagonistic activity was observed at all”. Under setting [1], the “Efficacy” value is on record as “D (Ineffective: the antagonistic activity was less than 65%, or the stimulating or agonistic activity of the sample was strong.)”.

For `OC[C@H]1O[C@@](CO)(OC[C@@]2(OC[C@@]3(OC[C@@]4(O[C@H]5O[C@H](CO)[C@@H](O)[C@H](O)[C@H]5O)O[C@H](CO)[C@@H](O)[C@@H]4O)O[C@H](CO)[C@@H](O)[C@@H]3O)O[C@H](CO)[C@@H](O)[C@@H]2O)[C@@H](O)[C@@H]1O` [Fructofranosylnystose, fructofranosylnystose, reference compound], the “effect” value is reported as “no NK1 receptor antagonistic activity was observed at all”. The “Efficacy” value under setting [1] was “D (Ineffective: the antagonistic activity was less than 65%, or the stimulating or agonistic activity of the sample was strong.)”.

As to `OC[C@H]1O[C@@H](O[C@@H]2[C@H](O)[C@@H](O)[C@H](O[C@@H]3[C@H](O)[C@@H](O)[C@H](O[C@@H]4[C@H](O)[C@@H](O)C(O)O[C@@H]4CO)O[C@@H]3CO)O[C@@H]2CO)[C@H](O)[C@@H](O)[C@H]1O` (stereo partly drawn) [Galactotetraose, galactotetraose, reference compound], the “effect” value is given as “no NK1 receptor antagonistic activity was observed at all”. The “Efficacy” value under setting [1] is on record as “D (Ineffective: the antagonistic activity was less than 65%, or the stimulating or agonistic activity of the sample was strong.)”.

For the molecule `OC[C@H]1O[C@H](OC[C@H]2O[C@H](OC[C@H]3O[C@H](OC[C@H]4O[C@H](OC[C@H]5O[C@H](OC[C@H]6O[C@H](OC[C@H]7OC(O)[C@H](O)[C@@H](O)[C@@H]7O)[C@H](O)[C@@H](O)[C@@H]6O)[C@H](O)[C@@H](O)[C@@H]5O)[C@H](O)[C@@H](O)[C@@H]4O)[C@H](O)[C@@H](O)[C@@H]3O)[C@H](O)[C@@H](O)[C@@H]2O)[C@H](O)[C@@H](O)[C@@H]1O` (stereo partly drawn) [Isomaltoheptaose, isomaltoheptaose, reference compound], the “effect” value was “no NK1 receptor antagonistic activity was observed at all”. Under setting [1], the “Efficacy” value is listed as “D (Ineffective: the antagonistic activity was less than 65%, or the stimulating or agonistic activity of the sample was strong.)”.

As for `OC[C@H]1O[C@H](OC[C@H]2O[C@H](OC[C@H]3O[C@H](OC[C@H]4O[C@H](OC[C@H]5O[C@H](OC[C@H]6OC(O)[C@H](O)[C@@H](O)[C@@H]6O)[C@H](O)[C@@H](O)[C@@H]5O)[C@H](O)[C@@H](O)[C@@H]4O)[C@H](O)[C@@H](O)[C@@H]3O)[C@H](O)[C@@H](O)[C@@H]2O)[C@H](O)[C@@H](O)[C@@H]1O` (stereo partly drawn) [Isomaltohexaose, isomaltohexaose, reference compound], the “effect” value is “no NK1 receptor antagonistic activity was observed at all”. Further, under setting [1], the “Efficacy” value is “D (Ineffective: the antagonistic activity was less than 65%, or the stimulating or agonistic activity of the sample was strong.)”.

Turning to `OC[C@H]1O[C@H](OC[C@H]2O[C@H](OC[C@H]3O[C@H](OC[C@H]4O[C@H](OC[C@H]5OC(O)[C@H](O)[C@@H](O)[C@@H]5O)[C@H](O)[C@@H](O)[C@@H]4O)[C@H](O)[C@@H](O)[C@@H]3O)[C@H](O)[C@@H](O)[C@@H]2O)[C@H](O)[C@@H](O)[C@@H]1O` (stereo partly drawn) [Isomaltopentaose, isomaltopentaose, reference compound], the “effect” value is “no NK1 receptor antagonistic activity was observed at all”. Further, the “Efficacy” value under setting [1] was “D (Ineffective: the antagonistic activity was less than 65%, or the stimulating or agonistic activity of the sample was strong.)”.

With `OC[C@H]1O[C@H](OC[C@H]2OC(O)[C@H](O)[C@@H](O)[C@@H]2O)[C@H](O)[C@@H](O)[C@@H]1O` (stereo partly drawn) [Isomaltose, isomaltose, reference compound], the “effect” value is given as “no NK1 receptor antagonistic activity was observed at all”. Besides, under setting [1], the “Efficacy” value is recorded as “D (Ineffective: the antagonistic activity was less than 65%, or the stimulating or agonistic activity of the sample was strong.)”.

Consider `OC[C@H]1O[C@H](OC[C@H]2O[C@H](OC[C@H]3O[C@H](OC[C@H]4OC(O)[C@H](O)[C@@H](O)[C@@H]4O)[C@H](O)[C@@H](O)[C@@H]3O)[C@H](O)[C@@H](O)[C@@H]2O)[C@H](O)[C@@H](O)[C@@H]1O` (stereo partly drawn) [Isomaltotetraose, isomaltotetraose, reference compound], for which the “effect” value was “no NK1 receptor antagonistic activity was observed at all”. Moreover, the “Efficacy” value under setting [1] was “D (Ineffective: the antagonistic activity was less than 65%, or the stimulating or agonistic activity of the sample was strong.)”.

Turning to `OC[C@H]1O[C@H](OC[C@H]2O[C@H](OC[C@H]3OC(O)[C@H](O)[C@@H](O)[C@@H]3O)[C@H](O)[C@@H](O)[C@@H]2O)[C@H](O)[C@@H](O)[C@@H]1O` (stereo partly drawn) [Isomaltotriose, isomaltotriose, reference compound], the “effect” value is reported as “no NK1 receptor antagonistic activity was observed at all”. For the same molecule, the “Efficacy” value under setting [1] is on record as “D (Ineffective: the antagonistic activity was less than 65%, or the stimulating or agonistic activity of the sample was strong.)”.
